The results in this text go back to patent publication US20210387966A1, “2-AMINO-N-HETEROARYL-NICOTINAMIDES AS NAV1.8 INHIBITORS” (Merck Sharp & Dohme Corp., priority 2018, published 2021).

In the assay the target is T1, human Nav1.8 channels (Homo sapiens, UniProt Q9Y5Y9).
T1 construct: expressed in transfected cells
T1 sequence (Q9Y5Y9 whole entry): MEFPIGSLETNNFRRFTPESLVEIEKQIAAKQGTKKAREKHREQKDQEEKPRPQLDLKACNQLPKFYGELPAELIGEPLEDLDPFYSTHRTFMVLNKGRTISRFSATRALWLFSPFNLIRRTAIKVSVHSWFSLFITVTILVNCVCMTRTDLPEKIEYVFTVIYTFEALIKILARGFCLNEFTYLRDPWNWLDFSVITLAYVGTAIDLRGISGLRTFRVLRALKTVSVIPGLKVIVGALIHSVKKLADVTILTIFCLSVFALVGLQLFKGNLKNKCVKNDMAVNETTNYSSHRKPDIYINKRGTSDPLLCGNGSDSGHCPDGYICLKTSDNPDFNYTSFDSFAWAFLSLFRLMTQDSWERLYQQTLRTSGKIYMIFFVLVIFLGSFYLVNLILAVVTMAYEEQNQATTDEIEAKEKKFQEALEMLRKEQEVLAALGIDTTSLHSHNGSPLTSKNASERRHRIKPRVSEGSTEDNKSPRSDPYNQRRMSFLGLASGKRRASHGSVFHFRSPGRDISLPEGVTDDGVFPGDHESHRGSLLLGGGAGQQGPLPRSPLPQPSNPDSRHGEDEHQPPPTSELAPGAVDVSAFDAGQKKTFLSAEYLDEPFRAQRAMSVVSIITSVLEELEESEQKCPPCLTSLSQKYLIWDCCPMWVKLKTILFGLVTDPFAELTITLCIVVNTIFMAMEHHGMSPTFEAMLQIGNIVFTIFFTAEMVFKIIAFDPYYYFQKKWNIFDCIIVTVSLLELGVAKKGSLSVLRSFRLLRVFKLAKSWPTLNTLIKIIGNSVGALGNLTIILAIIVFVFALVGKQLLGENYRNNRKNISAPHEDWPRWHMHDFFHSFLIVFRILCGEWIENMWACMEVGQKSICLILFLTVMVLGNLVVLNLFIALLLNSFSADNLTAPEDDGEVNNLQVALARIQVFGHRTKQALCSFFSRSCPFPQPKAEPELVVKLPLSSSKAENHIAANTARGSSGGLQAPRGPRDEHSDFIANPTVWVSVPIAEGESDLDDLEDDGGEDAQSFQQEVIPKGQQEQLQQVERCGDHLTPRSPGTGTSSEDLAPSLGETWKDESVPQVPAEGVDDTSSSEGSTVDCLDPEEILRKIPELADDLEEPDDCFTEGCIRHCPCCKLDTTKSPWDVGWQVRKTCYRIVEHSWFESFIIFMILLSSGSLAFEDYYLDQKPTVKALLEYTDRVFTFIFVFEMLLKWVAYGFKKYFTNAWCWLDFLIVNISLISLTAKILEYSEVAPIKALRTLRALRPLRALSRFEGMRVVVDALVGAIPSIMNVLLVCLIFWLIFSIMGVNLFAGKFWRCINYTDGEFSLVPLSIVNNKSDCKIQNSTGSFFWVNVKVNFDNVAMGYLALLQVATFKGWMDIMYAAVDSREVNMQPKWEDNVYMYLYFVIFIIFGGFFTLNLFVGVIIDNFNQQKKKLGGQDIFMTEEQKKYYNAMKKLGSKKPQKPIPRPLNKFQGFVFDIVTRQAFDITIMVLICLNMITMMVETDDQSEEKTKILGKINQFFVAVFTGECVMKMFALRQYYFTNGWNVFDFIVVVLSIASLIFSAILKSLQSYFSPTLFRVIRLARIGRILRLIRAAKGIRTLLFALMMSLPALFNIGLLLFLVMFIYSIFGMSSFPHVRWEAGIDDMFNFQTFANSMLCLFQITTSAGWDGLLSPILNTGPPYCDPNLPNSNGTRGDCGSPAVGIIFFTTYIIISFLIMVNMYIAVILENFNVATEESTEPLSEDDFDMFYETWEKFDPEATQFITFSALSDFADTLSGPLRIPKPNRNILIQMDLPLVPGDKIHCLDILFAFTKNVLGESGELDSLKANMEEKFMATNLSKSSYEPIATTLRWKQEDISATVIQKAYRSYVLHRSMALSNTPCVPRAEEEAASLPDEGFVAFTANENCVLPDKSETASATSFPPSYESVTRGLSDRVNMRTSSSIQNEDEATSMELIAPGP
Put plainly: Nav1.8 Qube automated patch-clamp assay. The class given is cell-based. As to conditions: human Nav1.8 stably expressed in HEK 293 cells; whole-cell voltage clamp, room temperature; resting or inactivated state not specified; read-out: IC50 values (nM) for Examples in the Nav1.8 Qube Assay. As to the method: Compounds were tested on human Nav1.8 and Nav1.5 channels stably expressed in human embryo kidney (HEK) 293 cells. Sodium current measurements on Qube® were conducted as follows: automated 384-well patch-clamp assays on the Qube® platform (Sophion Biosciences) were used to measure the inhibition of sodium flow through human Nav1.8 and Nav1.5 channels. Whole-cell voltage-clamp recordings were performed in QChips® (Sophion Biosciences) at room temperature. Nav1.8 current measurements on Qube® were obtained as follows: Nav1.8 currents were elicited with a 10 second 1 Hertz (Hz) pulse train from a holding potential of −90 millivolts (mV), delivered to the cells once per minute in the control condition (DMSO only) and after compound addition. The 1 hertz pulse train stimulation consisted of ten test pulses to 10 millivolt (mV) for 20 milliseconds (ms), each of which was followed by a 980 millisecond repolarization to −67 millivolts. At the end of the 10 second pulse train stimulation, a second hyperpolarization step to −100 millivolt (mV) was used to recover Nav1.8 from fast inactivation. The peak currents elicited by the 1st and 10th test pulses were used to determine IC50 values for resting inhibition and inactivated state inhibition. Nav1.5 current measurements on Qube® were obtained as follows: Nav1.5 currents were elicited with a 20 second 3 Hertz pulse train in the control condition (DMSO only) and after compound addition. The pulse train consisted of sixty 20 millisecond test pulses to 0 millivolt from a holding potential of −80 millivolt (mV). The average peak currents elicited by the last 3 test pulses were used to determine IC50 values for Nav1.5 inhibition.
The following buffers were used for the Qube® recordings: External buffer for Nav1.8 Qube® recording: 150 NaCl, 2 CaCl2, 5 KCl, 1 Mg Cl2, 10 HEPES, 12 Dextrose; External buffer for Qube® Nav1.5 recording: 120 N-Methyl-D-Glucamine, 40 NaCl, 1 KCl, 2.7 CaCl2, 5 HEPES, 0.5 MgCl2: and Internal buffer for Qube® recording: 120 CsF, 30 CsCl, 10 EGTA, 5 HEPES, 5 NaF, 2 MgCl2.
For all Qube® experiments offline analysis was used to determine percent inhibition as a function of drug concentration. IC50 values were determined by fitting to the Hill equation.
For orientation: The patch-clamp technique gives a direct electrical read-out from membranes.
As to `C[C@@H]1CN(c2ncc(C(F)(F)F)cc2C(=O)Nc2ccnc(S(N)(=O)=O)c2)C[C@H](C)[C@]1(C)O` [Example 75, 2-((3R,4s,5S)-4-hydroxy-3,4,5-trimethylpiperidin-1-yl)-N-(2-sulfamoylpyridin-4-yl)-5-(trifluoromethyl)nicotinamide], the IC50 is 233 nM. Under `Cc1nc(N2CCCC(F)(F)CC2)c(C(=O)Nc2cnn(S(=O)(=O)CCN)c2)cc1Cl` [Example 33, N-{1-[(2-aminoethyl)sulfonyl]-1H-pyrazol-4-yl}-5-chloro-2-(4,4-difluoroazepan-1-yl)-6-methylpyridine-3-carboxamide] stands 35 nM. Under `Cc1nc(N2CCOC(C(F)F)CC2)c(C(=O)Nc2ccnc(S(N)(=O)=O)c2)cc1Cl` (single isomer, unassigned) [Example 116, 5-chloro-2-[(7R or 7S)-7-(difluoromethyl)-1,4-oxazepan-4-yl]-6-methyl-N-(2-sulfamoylpyridin-4-yl)pyridine-3-carboxamide] stands 32 nM. The figure for `NS(=O)(=O)c1cc(NC(=O)c2cc(C3CC3)nnc2N2CCCC(F)(F)CC2)ccn1` [Example 39, 6-cyclopropyl-3-(4,4-difluoroazepan-1-yl)-N-(2-sulfamoylpyridin-4-yl)pyridazine-4-carboxamide] is 441 nM; for `N#Cc1ccc(NC(=O)c2cc(C(F)(F)F)cnc2N2CCC(F)(F)CC2)cn1` [Example 5, N-(6-cyanopyridin-3-yl)-2-(4,4-difluoropiperidin-1-yl)-5-(trifluoromethyl)nicotinamide] it is 820 nM; for `Cc1nc(N2CCCCC2)c(C(=O)Nc2cc[nH]c(=O)c2)c(C)c1Cl` [Example 211, 5-chloro-4,6-dimethyl-N-(2-oxo-1,2-dihydropyridin-4-yl)-2-(piperidin-1-yl)-nicotinamide] it is 357 nM. With `N#Cc1noc(NC(=O)c2cc(C(F)(F)F)cnc2N2CCCCCC2)n1` [Example 45, 2-(azepan-1-yl)-N-(3-cyano-1,2,4-oxadiazol-5-yl)-5-(trifluoromethyl)pyridine-3-carboxamide], the IC50 is 1790 nM.

Consider `CS(=O)(=O)c1cc(NC(=O)c2cc(C(F)(F)F)cnc2N2C[C@@H]3[C@H](C2)C(F)(F)C3(F)F)ccn1` [Example 151, N-(2-methylsulfonyl-4-pyridyl)-2-[(1R,5S)-6,6,7,7-tetrafluoro-3-azabicyclo[3.2.0]heptan-3-yl]-5-(trifluoro-methyl)pyridine-3-carboxamide], for which the 50% inhibitory concentration (IC50) is 89 nM.

In the case of `NS(=O)(=O)c1cc(NC(=O)c2cc(C(F)(F)F)cnc2N2CCC(n3cccn3)C2)ccn1` (stereo not shown) [Example 94, 2-(3-pyrazol-1-ylpyrrolidin-1-yl)-N-(2-sulfamoyl-4-pyridyl)-5-(trifluoromethyl)pyridine-3-carboxamide], the half-maximal inhibitory concentration (IC50) was determined as 745 nM. Under `COc1nc(N2CCCC(F)(F)CC2)c(C(=O)Nc2ccnc(S(N)(=O)=O)c2)cc1Cl` [Example 41, 5-chloro-2-(4,4-difluoroazepan-1-yl)-6-methoxy-N-(2-sulfamoylpyridin-4-yl)pyridine-3-carboxamide] stands 5.1 nM; under `C[C@H]1CN(c2ncc(C(F)(F)F)cc2C(=O)Nc2ccnc(S(N)(=O)=O)c2)C[C@H](C(F)(F)F)O1` [Example 103, 2-((2S,6R)-2-methyl-6-(trifluoromethyl)morpholino)-N-(2-sulfamoylpyridin-4-yl)-5-(trifluoromethyl)nicotinamide], 166 nM; under `N#Cc1cc(NC(=O)c2cc(C(F)(F)F)cnc2N2CCCCCC2)ccn1` [Example 197, 2-(azepan-1-yl)-N-(2-cyano-4-pyridyl)-5-(tri-fluoromethyl)pyridine-3-carboxamide], 244 nM. The figure for `CC1CN(c2ncc(C(F)(F)F)cc2C(=O)Nc2ccnc(C#N)c2)CCC1(F)F` (single isomer, unassigned) [Example 155, (R or S)-N-(2-cyanopyridin-4-yl)-2-(4,4-difluoro-3-methylpiperidin-1-yl)-5-(trifluoro-methyl)nicotinamide] is 60 nM.

Regarding `NC(=O)c1cncc(NC(=O)c2cc(C(F)(F)F)cnc2N2CCCCCC2)c1` [Example 8, 2-(azepan-1-yl)-N-(5-carbamoylpyridin-3-yl)-5-(trifluoromethyl)nicotinamide], the half-inhibitory concentration (IC50) amounted to 2350 nM.

Turning to `C[C@H]1CCN(c2ncc(C(F)(F)F)cc2C(=O)Nc2ccnc(S(N)(=O)=O)c2)CCO1` [Example 108, 2-[(7S)-7-methyl-1,4-oxazepan-4-yl]-N-(2-sulfamoyl-4-pyridyl)-5-(trifluoromethyl)pyridine-3-carboxamide], the half-inhibitory concentration (IC50) was determined as 191 nM.

Take `NC(=O)c1cc(NC(=O)c2cc(C(F)(F)F)cnc2N2CCCC(F)(F)CC2)ccn1` [Example 137, 4-(2-(4,4-difluoroazepan-1-yl)-5-(trifluoromethyl)nicotinamido)picolinamide]: the IC50 turned out to be 26 nM. Regarding `NS(=O)(=O)c1cc(NC(=O)c2cc(C(F)(F)F)cnc2N2CCCC3(C2)CC3(F)F)ccn1` (single isomer, unassigned) [Example 66, (R of S)-2-(1,1-difluoro-5-azaspiro[2.5]octan-5-yl)-N-(2-sulfamoylpyridin-4-yl)-5-(trifluoromethyl)nicotinamide], the concentration for half-maximal inhibition (IC50) was found to be 88 nM. Take `NS(=O)(=O)c1cc(NC(=O)c2cc(C3CC3)c(C(F)(F)F)nc2N2CCC(F)(F)CC2)ccn1` [Example 181, 5-cyclopropyl-2-(4,4-difluoropiperidin-1-yl)-N-(2-sulfamoylpyridin-4-yl)-6-(trifluoromethyl)nicotinamide]: the IC50 stood at 17 nM. For the compound `CC1CCCN(c2ncc(C(F)(F)F)cc2C(=O)Nc2ccnc(S(N)(=O)=O)c2)C1` (single isomer, unassigned) [Example 57, (R or S)-2-(3-methylpiperidin-1-yl)-N-(2-sulfamoylpyridin-4-yl)-5-(trifluoromethyl)nicotinamide], the IC50 is 31 nM. Under `Cc1nc(N2CCOC(C(F)F)C2)c(C(=O)Nc2ccnc(S(N)(=O)=O)c2)cc1Cl` (single isomer, unassigned) [Example 125, (R or S)-5-chloro-2-(2-(difluoromethyl)morpholino)-6-methyl-N-(2-sulfamoylpyridin-4-yl)nicotinamide] stands 144 nM; under `NS(=O)(=O)c1cc(NC(=O)c2cc(C(F)(F)F)cnc2N2CCSCC2)ccn1` [Example 84, N-(2-sulfamoyl-4-pyridyl)-2-thiomorpholino-5-(trifluoromethyl)pyridine-3-carboxamide], 147 nM; under `NS(=O)(=O)c1cc(NC(=O)c2cc(C(F)(F)F)cnc2N2CCOC(C(F)(F)F)CC2)ccn1` (single isomer, unassigned) [Example 119, (S or R)-N-(2-sulfamoylpyridin-4-yl)-5-(trifluoromethyl)-2-(7-(trifluoromethyl)-1,4-oxazepan-4-yl)nicotinamide], 30 nM. Under `NS(=O)(=O)c1cc(NC(=O)c2cc(C(F)(F)F)cnc2N2CCn3c(Cc4ccccc4)cnc3C2)ccn1` [Example 86, 2-(3-benzyl-6,8-dihydro-5H-imidazo[1,2-a]pyrazin-7-yl)-N-(2-sulfamoyl-4-pyridyl)-5-(trifluoromethyl)pyridine-3-carboxamide] stands 172 nM. Under `N#Cc1cc(NC(=O)c2cc(C(F)(F)F)cnc2N2C[C@H]3CC[C@H]3C2)ccn1` [Example 153, 2-[(1R,5S)-3-azabicyclo[3.2.0]heptan-3-yl]-N-(2-cyano-4-pyridyl)-5-(tri-fluoromethyl)pyridine-3-carboxamide] stands 310 nM.

With `C[C@H]1CN(c2ncc(C(F)(F)F)cc2C(=O)Nc2ccnc(S(N)(=O)=O)c2)CC[C@@H]1O` [Example 77, 2-[(3S,4S)-4-hydroxy-3-methyl-1-piperidyl]-N-(2-sulfamoyl-4-pyridyl)-5-(trifluoromethyl)pyridine-3-carboxamide], the IC50 is 2980 nM.

For the compound `C[C@@H]1CN(c2ncc(C(F)(F)F)cc2C(=O)Nc2ccnc(S(N)(=O)=O)c2)CCC1(F)F` (single isomer, unassigned) [Example 48], the IC50 turned out to be 12 nM. The figure for `Cc1nc(N2CCCCCC2)c(C(=O)Nc2cc[nH]c(=O)c2)c(C)c1Cl` [Example 213, 2-(azepan-1-yl)-5-chloro-4,6-dimethyl-N-(2-oxo-1,2-dihydropyridin-4-yl)nicotinamide] is 80 nM; for `COc1cncc(NC(=O)c2cc(C(F)(F)F)cnc2N2CCCCCC2)c1` [Example 194, 2-(azepan-1-yl)-N-(5-methoxy-3-pyridyl)-5-(trifluoromethyl)-pyridine-3-carboxamide] it is 1550 nM.

The IC50 is the concentration that gives 50% inhibition.
